The source of these data is patent US12655116B2, “Substituted isophthalic acid diamides” (Bayer Aktiengesellschaft, priority 2020, dated 2026).

For the assay, the system named is harmful plants. Briefly: Comparative experiments: herbicidal post-emergence action versus compounds known from D1 (WO 2012/028579 A1). The assay is classed as in vivo. Set-up: key to Herbicidal action against ALOMY / Herbicidal action against AVEFA / Herbicidal action against LOLRI / Herbicidal action against MATIN / Herbicidal action against HORMU / Herbicidal action against ECHCG / Herbicidal action against SETVI / Herbicidal action against ABUTH / Herbicidal action against STEME / Herbicidal action against VIOTR / Herbicidal action against AMARE: % herbicidal action: 100 = plants died, 0 = like untreated control. As to the method:
Seeds of monocotyledonous and dicotyledonous weed and crop plants are laid out in sandy loam soil in wood-fiber pots, covered with soil and cultivated in a greenhouse under good growth conditions. 2 to 3 weeks after sowing, the test plants are treated at the one-leaf stage. The compounds of the invention, formulated in the form of wettable powders (WP) or as emulsion concentrates (EC), are then sprayed onto the green parts of the plants in the form of an aqueous suspension or emulsion at a water application rate equivalent to 600 to 800 l/ha, with addition of 0.2% wetting agent. After the test plants have been left to stand in the greenhouse under optimal growth conditions for about 3 weeks, the action of the preparations is assessed visually in comparison to untreated controls (herbicidal action in percent (%): 100% activity=the plants have died, 0% activity=like control plants). […] The tables below illustrate, in an illustrative manner, the post-emergence herbicidal action of the compounds of the invention, the herbicidal activity being stated in percent. In the experiments that follow, herbicidal action of numerous inventive compounds and the structurally closest compounds known from D1 (WO 2012/028579 A1) were compared under the above-specified conditions by the pre-emergence and post-emergence method. The example numbers given in the tables relate to the compounds disclosed in the respective documents.

Structures are written as SMILES.

Turning to `CNC(=O)c1c(C(F)F)ccc(C(=O)Nc2nnnn2C)c1Cl` [Example 1-147], under “20 g a.i./ha”, the “Herbicidal action against ALOMY” value worked out at 80, the “Herbicidal action against AVEFA” value is given as 90, the “Herbicidal action against MATIN” value was 100 and the “Herbicidal action against PHBPU” value is on record as 80. For the same compound, the “Herbicidal action against VIOTR” value (20 g a.i./ha) is listed as 70. Moreover, the “Herbicidal action against POLCO” value (20 g a.i./ha, POLCO) is 90.
With `CCn1nnnc1NC(=O)c1ccc(C(F)F)c(C(=O)NC)c1Cl` [Example 2-147], under “20 g a.i./ha”, the “Herbicidal action against ALOMY” value is listed as 80, the “Herbicidal action against AVEFA” value is given as 90, the “Herbicidal action against HORMU” value was determined as 80 and the “Herbicidal action against MATIN” value turned out to be 100. For the same compound, the “Herbicidal action against PHBPU” value (20 g a.i./ha) was determined as 70. The “Herbicidal action against LOLRI” value (20 g a.i./ha, LOLRI) is given as 70.
Regarding `CCn1nnnc1NC(=O)c1ccc(C(F)(F)F)c(C(=O)NC)c1Cl` [Example 2-129], for the setting “5 g a.i./ha”, the “Herbicidal action against ALOMY” value is listed as 100, the “Herbicidal action against AVEFA” value came out at 100, the “Herbicidal action against HORMU” value is 80 and the “Herbicidal action against MATIN” value worked out at 80. In addition, where the note is “5 g a.i./ha”, the “Herbicidal action against SETVI” value was determined as 100. Further, where the note is “5 g a.i./ha, AMARE”, the “Herbicidal action against AMARE” value is recorded as 100.
Consider `CNC(=O)c1c(C(F)(F)F)ccc(C(=O)Nc2nnnn2C)c1Cl` [Example 1-129], for which, for the setting “5 g a.i./ha, ABUTH”, the “Herbicidal action against ABUTH” value is given as 100. Where the note is “5 g a.i./ha”, the “Herbicidal action against ALOMY” value worked out at 90, the “Herbicidal action against SETVI” value stood at 100 and the “Herbicidal action against VIOTR” value turned out to be 80. For the same compound, under “5 g a.i./ha, ECHCG”, the “Herbicidal action against ECHCG” value was 100. Besides, under “5 g a.i./ha, STEME”, the “Herbicidal action against STEME” value stood at 100.
